Among the data in patent publication US8334287B2 (Hoffmann-La Roche Inc., priority 2009, dated 2012) are Ki values, retold here.

The assay deals with T1, human mGlu5a receptor (Homo sapiens, UniProt P41594).
T1 construct: expressed in transfected cells; host or cells: EBNA cells (transient transfection); membranes prepared from them
T1 sequence (P41594 21-1180 isoform P41594-2 limits assumed): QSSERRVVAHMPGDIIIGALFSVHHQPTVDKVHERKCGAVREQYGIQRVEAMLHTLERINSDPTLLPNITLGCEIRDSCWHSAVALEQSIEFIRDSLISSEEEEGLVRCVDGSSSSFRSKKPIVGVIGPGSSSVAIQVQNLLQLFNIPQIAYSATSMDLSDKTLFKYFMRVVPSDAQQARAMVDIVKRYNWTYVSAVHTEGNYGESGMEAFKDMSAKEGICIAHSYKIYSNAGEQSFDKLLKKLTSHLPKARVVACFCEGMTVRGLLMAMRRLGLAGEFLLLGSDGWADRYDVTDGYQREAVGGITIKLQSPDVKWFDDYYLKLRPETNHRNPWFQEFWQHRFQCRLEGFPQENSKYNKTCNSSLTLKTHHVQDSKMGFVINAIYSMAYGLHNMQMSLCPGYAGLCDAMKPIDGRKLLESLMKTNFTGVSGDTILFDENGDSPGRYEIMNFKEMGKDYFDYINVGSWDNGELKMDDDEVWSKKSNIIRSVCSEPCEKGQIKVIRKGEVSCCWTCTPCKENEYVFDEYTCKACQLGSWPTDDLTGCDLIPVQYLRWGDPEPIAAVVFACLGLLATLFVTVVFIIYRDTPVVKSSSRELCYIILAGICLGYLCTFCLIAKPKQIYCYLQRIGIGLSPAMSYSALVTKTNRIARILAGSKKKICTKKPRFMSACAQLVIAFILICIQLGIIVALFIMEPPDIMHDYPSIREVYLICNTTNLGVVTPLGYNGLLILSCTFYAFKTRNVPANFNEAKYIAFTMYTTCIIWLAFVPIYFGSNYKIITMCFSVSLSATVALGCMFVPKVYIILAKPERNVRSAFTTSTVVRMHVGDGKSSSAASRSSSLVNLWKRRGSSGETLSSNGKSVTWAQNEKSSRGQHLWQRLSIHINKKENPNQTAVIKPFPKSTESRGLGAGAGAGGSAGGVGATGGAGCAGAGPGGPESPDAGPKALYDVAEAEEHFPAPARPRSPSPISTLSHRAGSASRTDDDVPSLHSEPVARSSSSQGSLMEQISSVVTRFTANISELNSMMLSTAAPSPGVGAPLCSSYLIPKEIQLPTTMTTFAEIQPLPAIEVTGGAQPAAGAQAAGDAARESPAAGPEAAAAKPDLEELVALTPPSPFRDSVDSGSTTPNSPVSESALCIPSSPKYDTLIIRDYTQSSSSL
In words: mGlu5a receptor binding, displacement of [3H]MPEP. To be noted: competing radioligand [3H]MPEP; human mGlu5a receptor transiently transfected into EBNA cells; Ki=IC50/1+L/Kd. How it is done: For binding experiments, cDNA encoding human mGlu5a receptor was transiently transfected into EBNA cells using a procedure described by E.-J. Schlaeger and K. Christensen (Cytotechnology 1998, 15, 1-13). For functional assays, [Ca^2+]i measurements were performed largely as described previously (Porter et al., Br J. Pharmacol 1999, 128, 13-20) on stably expressed recombinant human mGlu 5a receptors in HEK-293 cells. The cells were dye loaded using Fluo 4-AM (purchased from Molecular Probes, 2 μM final concentration) [Ca^2+]i measurements were performed using a fluorometric imaging plate reader (FLIPR, Molecular Devices Corporation, La Jolla, Calif., USA). Antagonist evaluation was performed following a 5 minute preincubation with the test compounds followed by the addition of a submaximal addition of agonist.
The inhibition (antagonists) curves were fitted with a four parameter logistic equation giving IC50, and Hill coefficient using the iterative non linear curve fitting software Xcel fit.
The Ki values of the compounds tested are given. The Ki value is defined by the following formula: Ki=IC50/1+L/Kd in which the IC50 values are those concentrations of the compounds tested in which causes 50% inhibition of the competing radioligand ([^3H]MPEP). [L] is the concentration of radioligand used in the binding experiment and the Kd value of the radioligand is empiracally determined for each batch of membranes prepared.
In general, Ki refers to a dissociation constant, usually derived from enzyme kinetics or from competition with a known ligand. A higher Ki goes with weaker binding. As for `Cc1nc(C#Cc2cccc(Cl)c2)cn1-c1cc[nH]c(=O)c1` [Example 1, 4-[4-(3-chloro-phenylethynyl)-2-methyl-imidazol-1-yl]-1H-pyridin-2-one], the affinity, expressed as Ki, was 40 nM.
Compound `Cc1nc(C#Cc2cccc(Cl)c2)cn1-c1ccn(C)c(=O)c1` [Example 2, 4-[4-(3-chloro-phenylethynyl)-2-methyl-imidazol-1-yl]-1-methyl-1H-pyridin-2-one] gave a Ki of 69 nM.
The figure for `CCn1ccc(-n2cc(C#Cc3cccc(Cl)c3)nc2C)cc1=O` [Example 3, 4-[4-(3-chloro-phenylethynyl)-2-methyl-imidazol-1-yl]-1-ethyl-1H-pyridin-2-one] is 39 nM; for `Cc1nc(C#Cc2cccc(Cl)c2)cn1-c1ccn(CCO)c(=O)c1` [Example 4, 4-[4-(3-chloro-phenylethynyl)-2-methyl-imidazol-1-yl]-1-(2-hydroxy-ethyl)-1H-pyridin-2-one] it is 345 nM; for `COCCn1ccc(-n2cc(C#Cc3cccc(Cl)c3)nc2C)cc1=O` [Example 5, 4-[4-(3-chloro-phenylethynyl)-2-methyl-imidazol-1-yl]-1-(2-methoxy-ethyl)-1H-pyridin-2-one] it is 44 nM.
The value for `Cc1nc(C#Cc2ccnc(Cl)c2)cn1-c1cc[nH]c(=O)c1` [Example 6, 4-[4-(2-chloro-pyridin-4-ylethynyl)-2-methyl-imidazol-1-yl]-1H-pyridin-2-one] was 146 nM; that for `Cc1nc(C#Cc2ccnc(Cl)c2)cn1-c1ccn(C)c(=O)c1` [Example 7, 4-[4-(2-chloro-pyridin-4-ylethynyl)-2-methyl-imidazol-1-yl]-1-methyl-1H-pyridin-2-one] was 180 nM; that for `Cc1cccc(C#Cc2cn(-c3cc[nH]c(=O)c3)c(C)n2)c1` [Example 8, 4-(2-Methyl-4-m-tolylethynyl-imidazol-1-yl)-1H-pyridin-2-one] was 113 nM.
With `Cc1cccc(C#Cc2cn(-c3ccn(C)c(=O)c3)c(C)n2)c1` [Example 9, 1-Methyl-4-(2-methyl-4-m-tolylethynyl-imidazol-1-yl)-1H-pyridin-2-one], the Ki was 42 nM.
`CCn1ccc(-n2cc(C#Cc3cccc(C)c3)nc2C)cc1=O` [Example 10, 1-Ethyl-4-(2-methyl-4-m-tolylethynyl-imidazol-1-yl)-1H-pyridin-2-one]: the Ki stood at 75 nM.
With `Cc1cccc(C#Cc2cn(-c3ccn(CCO)c(=O)c3)c(C)n2)c1` [Example 11, 1-(2-Hydroxy-ethyl)-4-(2-methyl-4-m-tolylethynyl-imidazol-1-yl)-1H-pyridin-2-one], the Ki worked out at 265 nM.
The value for `COCCn1ccc(-n2cc(C#Cc3cccc(C)c3)nc2C)cc1=O` [Example 12, 1-(2-Methoxy-ethyl)-4-(2-methyl-4-m-tolylethynyl-imidazol-1-yl)-1H-pyridin-2-one] was 40 nM; that for `CCOC(=O)Cn1ccc(-n2cc(C#Cc3cccc(C)c3)nc2C)cc1=O` [Example 13, [4-(2-Methyl-4-m-tolylethynyl-imidazol-1-yl)-2-oxo-2H-pyridin-1-yl]-acetic acid ethyl ester] was 94 nM.
`Cc1nc(C#Cc2cccc(Cl)c2)cn1-c1cccc(O)n1` [Example 14, 6-[4-(3-chloro-phenylethynyl)-2-methyl-imidazol-1-yl]-pyridin-2-ol] displayed an inhibition constant Ki of 42 nM.
The value for `Cc1nc(C#Cc2cccc(Cl)c2)cn1-c1cccc(=O)n1C` [Example 15, 6-[4-(3-chloro-phenylethynyl)-2-methyl-imidazol-1-yl]-1-methyl-1H-pyridin-2-one] was 154 nM.
With `Cc1nc(C#Cc2cccc(Cl)c2)cn1-c1cncc(=O)[nH]1` [Example 16, 6-[4-(3-chloro-phenylethynyl)-2-methyl-imidazol-1-yl]-1H-pyrazin-2-one], affinity was put at a Ki of 659 nM.
`Cc1nc(C#Cc2ccnc(Cl)c2)cn1-c1cccc(O)n1` [Example 17, 6-[4-(2-chloro-pyridin-4-ylethynyl)-2-methyl-imidazol-1-yl]-pyridin-2-ol]: the inhibitory constant (Ki) was 144 nM.
The value for `Cc1nc(C#Cc2ccnc(Cl)c2)cn1-c1cccc(=O)n1C` [Example 18, 6-[4-(2-chloro-pyridin-4-ylethynyl)-2-methyl-imidazol-1-yl]-1-methyl-1H-pyridin-2-one] was 559 nM.
The figure for `Cc1nc(C#Cc2ccnc(Cl)c2)cn1-c1cncc(=O)[nH]1` [Example 19, 6-[4-(2-chloro-pyridin-4-ylethynyl)-2-methyl-imidazol-1-yl]-1H-pyrazin-2-one] is 504 nM; for `Cc1nc(C#Cc2ccnc(Cl)c2)cn1-c1cncc(=O)n1C` [Example 20, 6-[4-(2-chloro-pyridin-4-ylethynyl)-2-methyl-imidazol-1-yl]-1-methyl-1H-pyrazin-2-one] it is 817 nM.
With `Cc1nc(C#Cc2cccc(Cl)c2)cn1-c1cnn(C)c(=O)c1` [Example 21, 5-[4-(3-chloro-phenylethynyl)-2-methyl-imidazol-1-yl]-2-methyl-2H-pyridazin-3-one], the inhibition constant (Ki) came to 40 nM.
As for `Cc1nc(C#Cc2ccnc(Cl)c2)cn1-c1cnn(C)c(=O)c1` [Example 22, 5-[4-(2-chloro-pyridin-4-ylethynyl)-2-methyl-imidazol-1-yl]-2-methyl-2H-pyridazin-3-one], the affinity, expressed as Ki, was 384 nM.
The value for `Cc1cccc(C#Cc2cn(-c3cnn(C)c(=O)c3)c(C)n2)c1` [Example 23, 2-Methyl-5-(2-methyl-4-m-tolylethynyl-imidazol-1-yl)-2H-pyridazin-3-one] was 52 nM.
The compound `Cc1nc(C#Cc2ccnc(Cl)c2)cn1-c1cc(=O)n(C)cn1` [Example 24, 6-[4-(2-chloro-pyridin-4-ylethynyl)-2-methyl-imidazol-1-yl]-3-methyl-3H-pyrimidin-4-one] yielded an inhibitory constant (Ki) of 277 nM.
The value for `Cc1nc(C#Cc2cccc(Cl)c2)c(C)n1-c1cc[nH]c(=O)c1` [Example 25, 4-[4-(3-chloro-phenylethynyl)-2,5-dimethyl-imidazol-1-yl]-1H-pyridin-2-one] was 148 nM.
`Cc1nc(C#Cc2cccc(Cl)c2)c(C)n1-c1ccn(C)c(=O)c1` [Example 26, 4-[4-(3-chloro-phenylethynyl)-2,5-dimethyl-imidazol-1-yl]-1-methyl-1H-pyridin-2-one] yielded an inhibitory constant (Ki) of 33 nM.
The figure for `CCn1ccc(-n2c(C)nc(C#Cc3cccc(Cl)c3)c2C)cc1=O` [Example 27, 4-[4-(3-chloro-phenylethynyl)-2,5-dimethyl-imidazol-1-yl]-1-ethyl-1H-pyridin-2-one] is 40 nM.
The value for `Cc1nc(C#Cc2cccc(Cl)c2)c(C)n1-c1ccn(CCO)c(=O)c1` [Example 28, 4-[4-(3-chloro-phenylethynyl)-2,5-dimethyl-imidazol-1-yl]-1-(2-hydroxy-ethyl)-1H-pyridin-2-one] was 222 nM; that for `COCCn1ccc(-n2c(C)nc(C#Cc3cccc(Cl)c3)c2C)cc1=O` [Example 29, 4-[4-(3-chloro-phenylethynyl)-2,5-dimethyl-imidazol-1-yl]-1-(2-methoxy-ethyl)-1H-pyridin-2-one] was 58 nM; that for `Cc1cccc(C#Cc2nc(C)n(-c3cc[nH]c(=O)c3)c2C)c1` [Example 30, 4-(2,5-dimethyl-4-m-tolylethynyl-imidazol-1-yl)-1H-pyridin-2-one] was 211 nM.
`Cc1cccc(C#Cc2nc(C)n(-c3ccn(C)c(=O)c3)c2C)c1` [Example 31, 4-[2,5-dimethyl-4-m-tolylethynyl-imidazol-1-yl]-1-methyl-1H-pyridin-2-one]: the affinity, expressed as Ki, was 61 nM.
Compound `CCn1ccc(-n2c(C)nc(C#Cc3cccc(C)c3)c2C)cc1=O` [Example 32, 4-[2,5-dimethyl-4-m-tolylethynyl-imidazol-1-yl]-1-ethyl-1H-pyridin-2-one] showed an inhibition constant Ki of 46 nM.
The value for `Cc1cccc(C#Cc2nc(C)n(-c3ccn(CCO)c(=O)c3)c2C)c1` [Example 33, 4-[2,5-dimethyl-4-m-tolylethynyl-imidazol-1-yl]-1-(2-hydroxy-ethyl)-1H-pyridin-2-one] was 446 nM; that for `COCCn1ccc(-n2c(C)nc(C#Cc3cccc(C)c3)c2C)cc1=O` [Example 34, 4-[2,5-dimethyl-4-m-tolylethynyl-imidazol-1-yl]-1-(2-methoxy-ethyl)-1H-pyridin-2-one] was 87 nM; that for `Cc1nc(C#Cc2ccnc(Cl)c2)c(C)n1-c1cc[nH]c(=O)c1` [Example 35, 4-[4-(2-chloro-pyridin-4-ylethynyl)-2,5-dimethyl-imidazol-1-yl]-1H-pyridin-2-one] was 347 nM.
The compound `Cc1nc(C#Cc2ccnc(Cl)c2)c(C)n1-c1ccn(C)c(=O)c1` [Example 36, 4-[4-(2-chloro-pyridin-4-ylethynyl)-2,5-dimethyl-imidazol-1-yl]-1-methyl-1H-pyridin-2-one] came in with a Ki of 173 nM.
The value for `CCn1ccc(-n2c(C)nc(C#Cc3ccnc(Cl)c3)c2C)cc1=O` [Example 37, 4-[4-(2-chloro-pyridin-4-ylethynyl)-2,5-dimethyl-imidazol-1-yl]-1-ethyl-1H-pyridin-2-one] was 238 nM; that for `COCCn1ccc(-n2c(C)nc(C#Cc3ccnc(Cl)c3)c2C)cc1=O` [Example 39, 4-[4-(2-chloro-pyridin-4-ylethynyl)-2,5-dimethyl-imidazol-1-yl]-1-(2-methoxy-ethyl)-1H-pyridin-2-one] was 285 nM.
